Reference: patent US10533006B2, “Nitrogen-containing heterocycle and carbocycle derivatives having TrkA inhibitory activity” (Shionogi & Co., Ltd., priority 2016, dated 2020)
Where two headings read alike, the source gives them in different places.

Biological target: T1, human TrkA (Homo sapiens, UniProt P04629)
T1 construct: purchased Lifetechnologies PV3144
Assay: Human TrkA inhibition assay
Format: biochemical
Conditions: human TrkA phosphorylation inhibition, ATP 500 μmol/L
Protocol: Seven point five L per well of human TrkA (PV3144, Lifetechnologies, final concentration: 1 nmol/L) suspended in the assay buffer (100 mmol/L 4-(2-hydroxyethyl)-1-piperazineethanesulfonic acid (HEPES), 10 mmol/L magnesium chloride, 0.003 vol % Brij-35, 0.004 vol % Tween20 and 1 mmol/L dithiothreitol (DTT)) was applied in a 384 well plate and the plate was pre-incubated for 15 min at room temperature with 0.4 μL of each compound (final concentration: 200 μmol/L-0.1 nM) dissolved in DMSO. Then, fluorescent substrate (FL-peptide 27, 760424, PerkinElmer, final concentration: 1.5 μmol/L) and ATP (final concentration 500 μmol/L) dissolved in the assay buffer was added in each well. After the incubation of 120 min at 37° C., fifteen μL of termination buffer (100 mmol/L HEPES, 40 mmol/L ethylenediaminetetraacetic acid (EDTA), 10 mmol/L magnesium chloride, 0.003 vol % Brij-35, 0.004 vol % Tween20, 1 mmol/L DTT and 0.16 vol % Coating Reagent 3) was added in each well to stop the enzyme reaction. Fluorescent intensities (FI) of phosphorylated and non-phosphorylated fluorescent substrates were measured by LabChip EZReader II (Caliper LifeSciences, Inc.), and conversion ratio (CR) was calculated by the following formula-1. The CR in the well applied with DMSO alone was used as a negative control and the CR in the well without applying TrkA was used as a positive control. The inhibitory effect of each compound on TrkA phosphorylation was calculated by the following formula-2. CR (%)=(FI of phosphorylated substrate/(FI of phosphorylated substrate+FI of non-phosphorylated substrate))×100 (Formula-1) Phosphorylation inhibition (%)=(1−(CR with compound treatment−CR of positive control)/(CR of negative control−CR of positive control))×100 (Formula-2)
IC50 values (nmol/L) were determined by the logistic regression using the inhibition data in 10 points of 3-fold dilution series at a compound concentration range of 2 μmol/L to 0.1 nmol/L, or 15 points of 3-fold dilution series at the range of 200 μmol/L to 0.04 nmol/L.

T1 sequence (P04629 33-796): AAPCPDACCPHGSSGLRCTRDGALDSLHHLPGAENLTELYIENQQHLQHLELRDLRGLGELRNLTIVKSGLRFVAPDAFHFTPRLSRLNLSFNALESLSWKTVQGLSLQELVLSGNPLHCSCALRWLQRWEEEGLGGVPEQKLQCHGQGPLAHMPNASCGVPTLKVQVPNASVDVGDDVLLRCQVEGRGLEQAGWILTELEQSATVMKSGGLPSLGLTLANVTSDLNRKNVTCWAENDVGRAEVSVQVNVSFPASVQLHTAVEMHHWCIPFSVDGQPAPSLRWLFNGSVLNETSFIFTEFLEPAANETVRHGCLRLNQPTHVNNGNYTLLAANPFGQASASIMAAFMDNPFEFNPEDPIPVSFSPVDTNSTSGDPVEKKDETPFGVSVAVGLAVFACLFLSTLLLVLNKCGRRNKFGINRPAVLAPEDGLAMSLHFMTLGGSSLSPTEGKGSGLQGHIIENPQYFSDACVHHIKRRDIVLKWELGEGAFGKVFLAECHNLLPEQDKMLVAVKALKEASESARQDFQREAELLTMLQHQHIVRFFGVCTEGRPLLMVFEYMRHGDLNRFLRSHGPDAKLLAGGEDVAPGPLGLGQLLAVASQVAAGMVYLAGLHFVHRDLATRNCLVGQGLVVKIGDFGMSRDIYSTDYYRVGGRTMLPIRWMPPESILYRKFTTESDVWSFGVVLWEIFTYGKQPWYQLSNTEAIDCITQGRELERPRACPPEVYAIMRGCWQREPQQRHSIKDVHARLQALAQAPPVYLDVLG

| SMILES | IC50 (read-out: IC50_nM) [nM] | IC50 (read-out: IC50 value) [nM] |
| --- | --- | --- |
| CCNC(=O)c1cc(-c2nn(-c3ccccc3)c(NC(=O)N[C@@H]3CN(CCOC)C[C@H]3c3ccccc3)c2C)cnc1OC(F)F (racemic) [Compound I-134] | < 100 |  |
| COCCN1C[C@@H](NC(=O)Nc2c(C)c(-c3cnc4cccnc4c3)nn2-c2ccccc2)[C@H](c2ccccc2)C1 (racemic) [Compound I-137] | < 100 |  |
| COCCN1C[C@@H](NC(=O)Nc2c(C)c(-c3cnc(OC)c(C(=O)NO)c3)nn2-c2ccccc2)[C@H](c2ccccc2)C1 (racemic) [Compound I-138] | < 100 |  |
| COCCN1C[C@@H](NC(=O)Nc2c(C)c(-c3cc(C(=O)NO)c(=O)n(C)c3)nn2-c2ccccc2)[C@H](c2ccccc2)C1 (racemic) [Compound I-139] | < 100 |  |
| COCCOc1ncc(-c2nn(-c3ccccc3)c(NC(=O)N[C@@H]3CN(CCOC)C[C@H]3c3ccccc3)c2C)cc1C(=O)NC1CCOCC1 (racemic) [Compound I-141] | < 100 |  |
| COCCN1C[C@@H](NC(=O)Nc2c(C)c(-c3cnc(OC)c(C(=O)NC#N)c3)nn2-c2ccccc2)[C@H](c2ccccc2)C1 (racemic) [Compound I-146] | < 100 |  |
| COCCN1C[C@@H](NC(=O)Nc2c(C)c(-c3cnc(OC)c(C(=O)NS(C)(=O)=O)c3)nn2-c2ccccc2)[C@H](c2ccccc2)C1 (racemic) [Compound I-147] | < 100 |  |
| COCCN1C[C@@H](NC(=O)Nc2c(C)c(-c3cnn(C)c3)nn2-c2ccccc2)[C@H](c2ccnc(F)c2F)C1 (racemic) [Compound I-162] | < 100 |  |
| COCC[C@@H]1C[C@@H](NC(=O)Nc2c(C)c(-c3ccc(O)nc3)nn2-c2ccccc2)[C@H](c2ccc(F)c(F)c2)N1C [Compound I-14] | < 100 |  |
| COCC[C@@H]1C[C@@H](NC(=O)Nc2c(C)c(-c3ccc(OCc4ccccc4)nc3)nn2-c2ccccc2)[C@H](c2ccccc2)C1 [Compound I-22] | < 100 |  |
| COCC[C@@H]1C[C@@H](NC(=O)Nc2c(C)c(-c3ccc(=O)[nH]c3)nn2-c2ccccc2)[C@H](c2ccccc2)C1 [Compound I-23] | < 100 |  |
| COCCN1C[C@@H](NC(=O)Nc2c(C)c(-c3ccnc(C(=O)N[C@H]4CC[C@H](O)CC4)c3)nn2-c2ccccc2)[C@H](c2ccccc2)C1 [Compound I-74] | < 100 |  |
| COCCN1C[C@@H](NC(=O)Nc2c(C)c(-c3ccnc(C(=O)NC[C@@H](C)O)c3)nn2-c2ccccc2)[C@H](c2ccccc2)C1 [Compound I-75] | < 100 |  |
| COCCN1C[C@@H](NC(=O)Nc2c(C)c(-c3cnc(OC)c(C(=O)N[C@@H]4CCCOC4)c3)nn2-c2ccccc2)[C@H](c2ccccc2)C1 [Compound I-78] | < 100 |  |
| COCCN1C[C@@H](NC(=O)Nc2c(C)c(-c3cnc(OC)c(C(=O)N[C@H]4CCOC4)c3)nn2-c2ccccc2)[C@H](c2ccccc2)C1 [Compound I-80] | < 100 |  |
| COCCN1C[C@@H](NC(=O)Nc2c(C)c(-c3ccnc(C(=O)N[C@H]4CC[C@@H](O)CC4)c3)nn2-c2ccccc2)[C@H](c2ccccc2)C1 [Compound I-85] | < 100 |  |
| COCCN1C[C@@H](NC(=O)Nc2c(C)c(-c3ccnc(C(=O)N[C@@H]4CCOC4)c3)nn2-c2ccccc2)[C@H](c2ccccc2)C1 [Compound I-86] | < 100 |  |
| COCCN1C[C@@H](NC(=O)Nc2c(C)c(-c3ccnc(C(=O)NC[C@H](C)O)c3)nn2-c2ccccc2)[C@H](c2ccccc2)C1 [Compound I-88] | < 100 |  |
| COCC[C@@H]1C[C@@H](NC(=O)Nc2c(C)c(-c3cc(C)c(=O)n(C)c3)nn2-c2ccccc2)[C@H](c2ccccc2)C1 [Compound I-103] | < 100 |  |
| COCC[C@@H]1C[C@@H](NC(=O)Nc2c(C)c(-c3cc(C(=O)OC)c(=O)n(C)c3)nn2-c2ccccc2)[C@H](c2ccccc2)C1 [Compound I-116] | < 100 |  |

Second part, the molecule after the results:

| IC50 (read-out: IC50_nM) [nM] | IC50 (read-out: IC50 value) [nM] | SMILES |
| --- | --- | --- |
| < 100 |  | CCNC(=O)c1cc(-c2nn(-c3ccccc3)c(NC(=O)N[C@@H]3CN(CCOC)C[C@H]3c3ccccc3)c2C)cnc1OCF (racemic) [Compound I-132] |
| < 100 |  | CCNC(=O)c1cc(-c2nn(-c3ccccc3)c(NC(=O)N[C@@H]3CN(CCOC)C[C@H]3c3ccccc3)c2C)cn(CCOC)c1=O (racemic) [Compound I-133] |
| < 100 |  | COCCN1C[C@@H](NC(=O)Nc2c(C)c(-c3cnc4nccnc4c3)nn2-c2ccccc2)[C@H](c2ccccc2)C1 (racemic) [Compound I-135] |
| < 100 |  | COCCN1C[C@@H](NC(=O)Nc2c(C)c(-c3cc(C(=O)NC4CCOCC4)c(=O)n(CCOC)c3)nn2-c2ccccc2)[C@H](c2ccccc2)C1 (racemic) [Compound I-136] |
| < 100 |  | CCOc1ncc(-c2nn(-c3ccccc3)c(NC(=O)N[C@@H]3CN(CCOC)C[C@H]3c3ccccc3)c2C)cc1C(=O)NC1CCOCC1 (racemic) [Compound I-140] |
| < 100 |  | COCCN1C[C@@H](NC(=O)Nc2c(C)c(-c3cnc(OCC(F)F)c(C(=O)NC4CCOCC4)c3)nn2-c2ccccc2)[C@H](c2ccccc2)C1 (racemic) [Compound I-142] |
| < 100 |  | COCCN1C[C@@H](NC(=O)Nc2c(C)c(-c3cnc(OCF)c(C(=O)NC4CCOCC4)c3)nn2-c2ccccc2)[C@H](c2ccccc2)C1 (racemic) [Compound I-143] |
| < 100 |  | COCCN1C[C@@H](NC(=O)Nc2c(C)c(-c3ccc(C(=O)NO)nc3)nn2-c2ccccc2)[C@H](c2ccccc2)C1 (racemic) [Compound I-150] |
| < 100 |  | CCOC(=O)NC(=O)c1cc(-c2nn(-c3ccccc3)c(NC(=O)N[C@@H]3CN(CCOC)C[C@H]3c3ccccc3)c2C)cnc1OC (racemic) [Compound I-157] |
| < 100 |  | COCCN1C[C@@H](NC(=O)Nc2c(C)c(-c3cnc(OC)c(C(=O)NC(=O)N(C)C)c3)nn2-c2ccccc2)[C@H](c2ccccc2)C1 (racemic) [Compound I-158] |
| < 100 |  | COCCN1C[C@@H](NC(=O)Nc2c(C)c(-c3cnc(OC)c(C(N)=O)c3)nn2-c2ccccc2)[C@H](c2ccccc2)C1 (racemic) [Compound I-161] |
| < 100 |  | COCCN1C[C@@H](NC(=O)Nc2c(C)c(-c3ccc4c(cnn4C)c3)nn2-c2ccccc2)[C@H](c2ccc(F)c(F)c2)C1 [Compound I-6] |
| < 100 |  | COCC[C@@H]1C[C@@H](NC(=O)Nc2c(C)c(-c3ccc4c(cnn4C)c3)nn2-c2ccccc2)[C@H](c2ccc(F)c(F)c2)N1 [Compound I-8] |
| < 100 |  | COCC[C@@H]1C[C@@H](NC(=O)Nc2c(C)c(-c3ccc4c(cnn4C)c3)nn2-c2ccccc2)[C@H](c2ccc(F)c(F)c2)N1C [Compound I-9] |
| < 100 |  | Cc1c(-c2ccc3c(cnn3C)c2)nn(-c2ccccc2)c1NC(=O)N[C@@H]1C[C@@H](CCOC(F)(F)F)C[C@H]1c1ccc(F)c(F)c1 [Compound I-11] |
| < 100 |  | COCC[C@@H]1C[C@@H](NC(=O)Nc2c(C)c(-c3ccc4c(cnn4C)c3)nn2-c2ccccc2)[C@H](c2ccc(F)c(F)c2)C1 [Compound I-13] |
| < 100 |  | CCN1CCC(NC(=O)c2ccc(-c3nn(-c4ccccc4)c(NC(=O)N[C@@H]4C[C@@H](CCOC)N[C@H]4c4ccc(F)c(F)c4)c3C)cc2)CC1 [Compound I-15] |
| < 100 |  | COCC[C@@H]1C[C@@H](NC(=O)Nc2c(C)c(-c3ccc4c(cnn4C)c3)nn2-c2ccccc2)[C@H](c2ccccc2)C1 [Compound I-21] |
|  | 0.81 | CCN1CCC(NC(=O)c2ccc(-c3nn(-c4ccccc4)c(NC(=O)N[C@@H]4C[C@@H](CCOC)C[C@H]4c4ccccc4)c3C)cc2)CC1 [Compound I-24] |
| < 100 |  | CCN1CCC(NC(=O)c2ccc(-c3nn(-c4ccccc4)c(NC(=O)N[C@@H]4C[C@@H](CCOC)N(C)[C@H]4c4ccc(F)c(F)c4)c3C)cc2)CC1 [Compound I-25] |
| < 100 |  | COCCN1C[C@@H](NC(=O)Nc2c(C)c(N3CCc4c(cnn4C)C3)nn2-c2ccccc2)[C@H](c2ccccc2)C1 [Compound I-58] |
| < 100 |  | COCCN1C[C@@H](NC(=O)Nc2c(C)c(N3CCc4nn(C)cc4C3)nn2-c2ccccc2)[C@H](c2ccccc2)C1 [Compound I-59] |
| < 100 |  | COCCN1C[C@@H](NC(=O)Nc2c(C)c(-c3cnc(OC)c(C(=O)NC[C@@H](C)O)c3)nn2-c2ccccc2)[C@H](c2ccccc2)C1 [Compound I-82] |
| < 100 |  | COCCN1C[C@@H](NC(=O)Nc2c(C)c(-c3cnc(OC)c(C(=O)N[C@@H]4CCOC4)c3)nn2-c2ccccc2)[C@H](c2ccccc2)C1 [Compound I-84] |
| < 100 |  | COCCN1C[C@@H](NC(=O)Nc2c(C)c(-c3ccnc(C(=O)N[C@H]4CCOC4)c3)nn2-c2ccccc2)[C@H](c2ccccc2)C1 [Compound I-87] |
| < 100 |  | COCC[C@@H]1C[C@@H](NC(=O)Nc2c(C)c(-c3cnc4c(cnn4C)c3)nn2-c2ccccc2)[C@H](c2ccnc(F)c2)N1C [Compound I-94] |
|  | 0.66 | COCC[C@@H]1C[C@@H](NC(=O)Nc2c(C)c(-c3cnc4c(cnn4C)c3)nn2-c2ccccc2)[C@H](c2ccccc2)C1 [Compound I-102] |
